Assay results published in patent publication US9351960B2 (priority 2012, dated 2016).

Tested on: cytopathogenic HCV variant C-13
Experiment: Antiviral activity in pig embryonic kidney cell (SPEV) cultures infected with HCV
Experimental: Infectious HCV doses used were equal to 10.0 tissue cytopathogenic doses (TCID50)/20 μL.
The used primary fibroblasts highly sensitive to cytopathogenic action of HCV were obtained after trypsinization of 9-day-old chick embryos (FEC), and the used pig embryonic kidney cell (SPEV) cultures were obtained from the Collection of Cell Cultures of the Institute of Virology RAMS. They were used in the form of a one-day cell monolayer grown in 24-well plastic plates. The SPEV and FEC cell cultures were cultured in medium 199 with 10% fetal calf serum, supplemented with glutamine and antibiotics (100 U/ml).
To study the antiviral activity of the drug, a 50 μL of a solution thereof taken in various dilutions were added to the FEC cultures at the time of infection, 24 hours before and 24 hours after infection of the cells.
The infectious activity of HCV was assessed according to the results of titration of fluid samples in the SPEV cell cultures, wherein the culture fluids were derived from the HCV-infected FEC or SPEV cultures on 2 and 5 days after infection. The results were usually registered 6 or 7 days after infection, when the viral cytopathic effect reached its maximum, using the Reed and Muench formula to determine HCV titers.
Samples of the culture medium were taken on Day 3, Day 4 and Day 5 after infection and titrated in fresh SPEV cell cultures.

## O=C(O)CCCC(=O)NCCc1c[nH]cn1 [glutaryl histamine]
SPEV, Day 3, 0.005 μg/mL, treatment 24 hours after infection
  HCV titers (lg TCID50 for SPEV cell cultures) in medium samples: 0 lg TCID50
SPEV, Day 3, 0.005 μg/mL, treatment 24 hours before infection
  HCV titers (lg TCID50 for SPEV cell cultures) in medium samples: 3.0 lg TCID50
SPEV, Day 3, 0.005 μg/mL, treatment at the time of infection
  HCV titers (lg TCID50 for SPEV cell cultures) in medium samples: 3.3 lg TCID50
SPEV, Day 3, 0.05 μg/mL, treatment 24 hours after infection
  HCV titers (lg TCID50 for SPEV cell cultures) in medium samples: <1.0 lg TCID50
SPEV, Day 3, 0.05 μg/mL, treatment 24 hours before infection
  HCV titers (lg TCID50 for SPEV cell cultures) in medium samples: 3.2 lg TCID50
SPEV, Day 3, 0.05 μg/mL, treatment at the time of infection
  HCV titers (lg TCID50 for SPEV cell cultures) in medium samples: 3.3 lg TCID50
SPEV, Day 3, 0.5 μg/mL, treatment 24 hours after infection
  HCV titers (lg TCID50 for SPEV cell cultures) in medium samples: 0 lg TCID50
SPEV, Day 3, 0.5 μg/mL, treatment 24 hours before infection
  HCV titers (lg TCID50 for SPEV cell cultures) in medium samples: 3.2 lg TCID50
SPEV, Day 3, 0.5 μg/mL, treatment at the time of infection
  HCV titers (lg TCID50 for SPEV cell cultures) in medium samples: 3.3 lg TCID50
SPEV, Day 3, 5.0 μg/mL, treatment 24 hours after infection
  HCV titers (lg TCID50 for SPEV cell cultures) in medium samples: 0 lg TCID50
SPEV, Day 3, 5.0 μg/mL, treatment 24 hours before infection
  HCV titers (lg TCID50 for SPEV cell cultures) in medium samples: 3.5 lg TCID50
SPEV, Day 3, 5.0 μg/mL, treatment at the time of infection
  HCV titers (lg TCID50 for SPEV cell cultures) in medium samples: 2.3 lg TCID50
SPEV, Day 3, 50.0 μg/mL, treatment 24 hours after infection
  HCV titers (lg TCID50 for SPEV cell cultures) in medium samples: 1.25 lg TCID50
SPEV, Day 3, 50.0 μg/mL, treatment 24 hours before infection
  HCV titers (lg TCID50 for SPEV cell cultures) in medium samples: 3.5 lg TCID50
SPEV, Day 3, 50.0 μg/mL, treatment at the time of infection
  HCV titers (lg TCID50 for SPEV cell cultures) in medium samples: 3.5 lg TCID50
SPEV, Day 3, 500.0 μg/mL, treatment 24 hours after infection
  HCV titers (lg TCID50 for SPEV cell cultures) in medium samples: 0 lg TCID50
SPEV, Day 3, 500.0 μg/mL, treatment 24 hours before infection
  HCV titers (lg TCID50 for SPEV cell cultures) in medium samples: 3.5 lg TCID50
SPEV, Day 3, 500.0 μg/mL, treatment at the time of infection
  HCV titers (lg TCID50 for SPEV cell cultures) in medium samples: 3.0 lg TCID50
SPEV, Day 4, 0.005 μg/mL, treatment 24 hours after infection
  HCV titers (lg TCID50 for SPEV cell cultures) in medium samples: 0 lg TCID50
SPEV, Day 4, 0.005 μg/mL, treatment 24 hours before infection
  HCV titers (lg TCID50 for SPEV cell cultures) in medium samples: 3.4 lg TCID50
SPEV, Day 4, 0.005 μg/mL, treatment at the time of infection
  HCV titers (lg TCID50 for SPEV cell cultures) in medium samples: 4.1 lg TCID50
SPEV, Day 4, 0.05 μg/mL, treatment 24 hours after infection
  HCV titers (lg TCID50 for SPEV cell cultures) in medium samples: 1.3 lg TCID50
SPEV, Day 4, 0.05 μg/mL, treatment 24 hours before infection
  HCV titers (lg TCID50 for SPEV cell cultures) in medium samples: 3.0 lg TCID50
SPEV, Day 4, 0.05 μg/mL, treatment at the time of infection
  HCV titers (lg TCID50 for SPEV cell cultures) in medium samples: 4.4 lg TCID50
SPEV, Day 4, 0.5 μg/mL, treatment 24 hours after infection
  HCV titers (lg TCID50 for SPEV cell cultures) in medium samples: 0 lg TCID50
SPEV, Day 4, 0.5 μg/mL, treatment 24 hours before infection
  HCV titers (lg TCID50 for SPEV cell cultures) in medium samples: 3.8 lg TCID50
SPEV, Day 4, 0.5 μg/mL, treatment at the time of infection
  HCV titers (lg TCID50 for SPEV cell cultures) in medium samples: 4.1 lg TCID50
SPEV, Day 4, 5.0 μg/mL, treatment 24 hours after infection
  HCV titers (lg TCID50 for SPEV cell cultures) in medium samples: 0 lg TCID50
SPEV, Day 4, 5.0 μg/mL, treatment 24 hours before infection
  HCV titers (lg TCID50 for SPEV cell cultures) in medium samples: 3.4 lg TCID50
SPEV, Day 4, 5.0 μg/mL, treatment at the time of infection
  HCV titers (lg TCID50 for SPEV cell cultures) in medium samples: 5.5 lg TCID50
SPEV, Day 4, 50.0 μg/mL, treatment 24 hours after infection
  HCV titers (lg TCID50 for SPEV cell cultures) in medium samples: 2.6 lg TCID50
SPEV, Day 4, 50.0 μg/mL, treatment 24 hours before infection
  HCV titers (lg TCID50 for SPEV cell cultures) in medium samples: 3.8 lg TCID50
SPEV, Day 4, 50.0 μg/mL, treatment at the time of infection
  HCV titers (lg TCID50 for SPEV cell cultures) in medium samples: 5.0 lg TCID50
SPEV, Day 4, 500.0 μg/mL, treatment 24 hours after infection
  HCV titers (lg TCID50 for SPEV cell cultures) in medium samples: 0 lg TCID50
SPEV, Day 4, 500.0 μg/mL, treatment 24 hours before infection
  HCV titers (lg TCID50 for SPEV cell cultures) in medium samples: 3.8 lg TCID50
SPEV, Day 4, 500.0 μg/mL, treatment at the time of infection
  HCV titers (lg TCID50 for SPEV cell cultures) in medium samples: 4.2 lg TCID50
SPEV, Day 5, 0.005 μg/mL, treatment 24 hours after infection
  HCV titers (lg TCID50 for SPEV cell cultures) in medium samples: 0 lg TCID50
SPEV, Day 5, 0.005 μg/mL, treatment 24 hours before infection
  HCV titers (lg TCID50 for SPEV cell cultures) in medium samples: 4.5 lg TCID50
SPEV, Day 5, 0.005 μg/mL, treatment at the time of infection
  HCV titers (lg TCID50 for SPEV cell cultures) in medium samples: 5.5 lg TCID50
SPEV, Day 5, 0.05 μg/mL, treatment 24 hours after infection
  HCV titers (lg TCID50 for SPEV cell cultures) in medium samples: 1.8 lg TCID50
SPEV, Day 5, 0.05 μg/mL, treatment 24 hours before infection
  HCV titers (lg TCID50 for SPEV cell cultures) in medium samples: 4.5 lg TCID50
SPEV, Day 5, 0.05 μg/mL, treatment at the time of infection
  HCV titers (lg TCID50 for SPEV cell cultures) in medium samples: 5.0 lg TCID50
SPEV, Day 5, 0.5 μg/mL, treatment 24 hours after infection
  HCV titers (lg TCID50 for SPEV cell cultures) in medium samples: 0 lg TCID50
SPEV, Day 5, 0.5 μg/mL, treatment 24 hours before infection
  HCV titers (lg TCID50 for SPEV cell cultures) in medium samples: 4.5 lg TCID50
SPEV, Day 5, 0.5 μg/mL, treatment at the time of infection
  HCV titers (lg TCID50 for SPEV cell cultures) in medium samples: 5.5 lg TCID50
SPEV, Day 5, 5.0 μg/mL, treatment 24 hours after infection
  HCV titers (lg TCID50 for SPEV cell cultures) in medium samples: 0 lg TCID50
SPEV, Day 5, 5.0 μg/mL, treatment 24 hours before infection
  HCV titers (lg TCID50 for SPEV cell cultures) in medium samples: 4.5 lg TCID50
SPEV, Day 5, 5.0 μg/mL, treatment at the time of infection
  HCV titers (lg TCID50 for SPEV cell cultures) in medium samples: 5.5 lg TCID50
SPEV, Day 5, 50.0 μg/mL, treatment 24 hours after infection
  HCV titers (lg TCID50 for SPEV cell cultures) in medium samples: 2.8 lg TCID50
SPEV, Day 5, 50.0 μg/mL, treatment 24 hours before infection
  HCV titers (lg TCID50 for SPEV cell cultures) in medium samples: 4.5 lg TCID50
SPEV, Day 5, 50.0 μg/mL, treatment at the time of infection
  HCV titers (lg TCID50 for SPEV cell cultures) in medium samples: 7.0 lg TCID50
SPEV, Day 5, 500.0 μg/mL, treatment 24 hours after infection
  HCV titers (lg TCID50 for SPEV cell cultures) in medium samples: 0 lg TCID50
SPEV, Day 5, 500.0 μg/mL, treatment 24 hours before infection
  HCV titers (lg TCID50 for SPEV cell cultures) in medium samples: 6.0 lg TCID50
SPEV, Day 5, 500.0 μg/mL, treatment at the time of infection
  HCV titers (lg TCID50 for SPEV cell cultures) in medium samples: 5.5 lg TCID50
SPEV, Day 5 after infection and simultaneous treatment of the cells
  suppression of HCV infectious activity: 2.2-2.7 lg TCID50/20 μg
SPEV, medium collected on Day 5 after infection
  suppression of the production of HCV compared with the control: 2.2 lg TCID50/20 μg
Added to the cultures 24 hours after infection
  HCV replication in SPEV cell cultures: significantly suppresses
